For one data set, the system named is cleaved PARP. In words: Western blot analysis of cleaved PARP protein expression. The data set is classed as cell-based, human. The note with it: for effect on camalexin-mediated PARP cleavage: H2O2 with camalexin.
The nature of data set [1]: Cell viability assay (CellTiter 96 AQueous One, MTS). In kind it is cell-based, human. As to conditions: human, ARCaP Neo cells, 3 days, 50 μM H2O2, read-out: decrease in cell viability. As to the method: (§1) PrEC, ARCaP Neo, ARCaP Snail, LNCaP, and C4-2 cells were plated at a density of 2,000 cells per well in 96-well plates and allowed to attach overnight.
In data set [2] the test system is C4-2 cells. In words: Detection of reactive oxygen species (H2DCFDA oxidation). In kind it is cell-based, human. As to the method:
(§2) Cells were plated at a density of 1×10^4 cells well in 96-well black clear bottom plates and left to attach overnight. Baseline ROS levels were assessed in untreated ARCaP Neo, […], and C4-2 cells. Prior to treatment, […] C4-2 cells were starved in serum-free and phenol red free RPMI. […] Procedures were performed following manufacturer's protocol (Molecular Probes®, Invitrogen) with slight modifications. Briefly, cells were loaded with 10 μM (final working concentration) of H2DCFDA in pre-warmed Hanks Balance Salt solution (HBSS) for 45 minutes. This was replaced with experimental media with various treatments as well as untreated controls, for 3 days. H2DCFDA oxidation was measured on a spectrofluorometer (BIOTek Synergy HT, BIOTeK Instruments Inc., Vt.) with excitation […] and emission 528 nm at desired increments.

Data set [3] has as its system ARCaP Snail cells. In words: Cell viability assay (CellTiter 96 AQueous One, MTS). The data set is classed as cell-based, human. The protocol: as §1
The subject of data set [4] is caspase-3/7 activity in ARCaP Snail cells. The data set is described as follows: FACS analysis of caspase-3/7 activity (Dual Sensor Mitocasp assay). In kind it is cell-based, human. The note with it: 3 days. The protocol: Caspases are generally accepted as the executioners of apoptosis. […] Stained cells were evaluated in an Accuri® C6 Flow Cytometer (Accuri Cytometers Inc., Ann Arbor, Mich.) and analyzed using FlowJo software.

Data set [5] concerns ARCaP Snail cells. In words: Detection of reactive oxygen species (H2DCFDA oxidation). The data set is classed as cell-based, human. The protocol:
as §2

The test system of a further data set is Trypanosoma cruzi. As to conditions: cited from earlier work.
The subject of a further data set is caspase-3. The data set is described as follows: Western blot analysis of total caspase-3 protein expression. The data set is classed as cell-based, human. (A western blot detects proteins with antibodies after separation by electrophoresis.)
For the next data set, the system named is ARCaP Neo cells. The data set is described as follows: Cell viability assay (CellTiter 96 AQueous One, MTS). The data set is classed as cell-based, human. As to the method: as §1
A further data set relates to LNCaP cells. The data set is described as above. In kind it is cell-based, human. As to the method: as §1
In data set [6] the test system is C4-2 cells. The data set is described as above. The data set is classed as cell-based, human. As to the method:
as §1

The next data set deals with Snail. The data set is described as follows: Western blot analysis of Snail protein expression. In kind it is cell-based, human. The note with it: 3 days.
A further data set concerns Jurkat T-leukemia cells. As to conditions: by increasing ROS and activation of caspases; cited from earlier work.
Setting [7] is: 10 mM NAC added to 25 or 50 μM camalexin.
Setting [8] is: ARCaP Neo cells, 10, 25 and 50 μM.

As to `OO` [H2O2, Hydrogen peroxide, reference compound], the “effect on camalexin-mediated PARP cleavage” value in the data set on cleaved PARP (ARCaP Neo cells) and in the data set on cleaved PARP (LNCaP cells) was “potentiated camalexin-mediated PARP cleavage” in each case. In [1], the cytotoxicity at 3 days, 50 μM was ~50%. In addition, in the data set on C4-2 cells [2] (100 μM H2O2 positive control), the ROS in cells result was “significantly increased ROS”.
For `CC(=O)N[C@@H](CS)C(=O)O` [NAC, N-acetyl cysteine, reference compound], in the data set with cleaved PARP (ARCaP Snail cells, co-treatment with NAC), the “effect on camalexin-increased cleaved PARP protein expression” value was “could be inhibited by co-treatment with NAC”. The “increased viability vs. 25 μM camalexin-only treatment” value with ARCaP Snail cells [3] (3 days, 25 μM camalexin with 10 mM NAC, not statistically significant) was “approximately 15%”. The “effect on camalexin-induced increase in caspase-3/7 activity” value in data set [4] (25 μM camalexin plus 10 mM NAC) is given as “abrogated the percent increase in caspase-3/7 activity”. Besides, the “effect on camalexin-mediated ROS” value in the data set with ARCaP Snail cells [5] (setting [7]) is listed as “abrogated by NAC”; in the data set with C4-2 cells [2] (setting [7]), “significantly decreased camalexin-mediated ROS”.
`c1ccc2c(-c3nccs3)c[nH]c2c1` [camalexin, 3-thiazol-2′yl-indole]: the “cleaved PARP protein expression” value in the data set on cleaved PARP (setting [8]) was “very low levels of cleaved PARP protein expression”; in the data set on cleaved PARP (ARCaP Snail cells, 10, 25 and 50 μM vs untreated control), “marked increase in levels of cleaved PARP protein expression”. For the same compound, in the data set on cleaved PARP (C4-2 cells, all 3 camalexin treatments, vs LNCaP cells), the PARP protein cleavage result is “marked increase in PARP protein cleavage”. The cytostatic/cytotoxic effects entry in the data set with Trypanosoma cruzi is “cytostatic/cytotoxic effects”. For the same compound, the “total caspase-3 protein levels” value is “not in the less aggressive ARCaP Neo or LNCaP cells” in the data set on caspase-3 (ARCaP Neo cells, 3 days); “induced an increase in total caspase-3 protein levels” in the data set with caspase-3 (ARCaP Snail cells, 3 days (p<0.01 at 50 μM)); “induced an increase in total caspase-3 protein levels” in the data set on caspase-3 (C4-2 cells, 3 days); “significant decrease in protein expression” in the data set with caspase-3 (LNCaP cells, 10 μM, 3 days); “not in the less aggressive ARCaP Neo or LNCaP cells” with caspase-3 (LNCaP cells, 3 days). Further, the cell viability entry in the data set with ARCaP Snail cells [3] (day 0) was “no change in viability”; in the data set on ARCaP Neo cells (day 0), “no change in viability”; with ARCaP Neo cells (day 3, 10, 25 and 50 μM), “remained unaffected”; in the data set on LNCaP cells (day 0), “viability was unaffected”; with C4-2 cells [6] (C4-2, day 0), “viability was unaffected”. The “decrease in cell viability” value in the data set with ARCaP Snail cells [3] (day 3, 10 μM) is on record as “approximately 25%”; in the data set on ARCaP Snail cells [3] (day 3, 25 μM), ~35%; in the data set on ARCaP Snail cells [3] (day 3, 50 μM), ~35%; with LNCaP cells (day 3, 50 μM), “approximately 40±2%”; in the data set on C4-2 cells [6] (C4-2, day 3, 10 μM), “approximately 40±5%”; with C4-2 cells [6] (C4-2, day 3, 25 μM) it was “approximately 40±5%”. For the same compound, in the data set on C4-2 cells [6] (C4-2, day 3, 50 μM), the “decrease in cell viability” value is recorded as “approximately 40±5%”. The Snail protein expression result in the data set on Snail (setting [8]) is on record as “no detectable levels of Snail protein expression”; in the data set on Snail (ARCaP Snail cells, 10, 25 and 50 μM) it was “not affected by camalexin treatments”; with Snail (C4-2 cells, 10, 25 and 50 μM), “did not affect Snail expression”; in the data set with Snail (LNCaP cells, 10 μM), “moderate expressing band for Snail protein”. In the data set on Jurkat T-leukemia cells, the apoptosis result is reported as “induced apoptosis”. Moreover, the “fraction of cells with increased caspase-3/7 activity” value in [4] (25 μM camalexin, untreated control 21.7%) came to 34.2%. Further, the “ROS, as compared to untreated controls” value in the data set on ARCaP Snail cells [5] (25 μM camalexin) is listed as “approximately 210%”; with ARCaP Snail cells [5] (50 μM camalexin) it was ~350±25%. Further, the figures for the “ROS, of untreated controls” value in the data set with C4-2 cells [2] (25 μM camalexin) and in the data set with C4-2 cells [2] (50 μM camalexin) were “approximately 130±5%” and ~150±5%, respectively.

Source of the values: patent publication US20130096166A1 (Clark Atlanta University, priority 2011, published 2013).
